The compounds below were run against T1, recombinant human NK3 receptor (Homo sapiens, UniProt P29371) (assay: [3H]SR142801 competition binding assay). Conditions: membranes from HEK293 cells transiently expressing recombinant human NK3 receptor; [3H]SR142801 radioligand; 75 min at RT; Ki by Cheng-Prussoff; read-out: Data Ki (hNK-3 receptor affinity).
T1 construct: expressed in transfected cells; host or cells: HEK293 cells (transient expression), membranes
T1 sequence (P29371 1-465): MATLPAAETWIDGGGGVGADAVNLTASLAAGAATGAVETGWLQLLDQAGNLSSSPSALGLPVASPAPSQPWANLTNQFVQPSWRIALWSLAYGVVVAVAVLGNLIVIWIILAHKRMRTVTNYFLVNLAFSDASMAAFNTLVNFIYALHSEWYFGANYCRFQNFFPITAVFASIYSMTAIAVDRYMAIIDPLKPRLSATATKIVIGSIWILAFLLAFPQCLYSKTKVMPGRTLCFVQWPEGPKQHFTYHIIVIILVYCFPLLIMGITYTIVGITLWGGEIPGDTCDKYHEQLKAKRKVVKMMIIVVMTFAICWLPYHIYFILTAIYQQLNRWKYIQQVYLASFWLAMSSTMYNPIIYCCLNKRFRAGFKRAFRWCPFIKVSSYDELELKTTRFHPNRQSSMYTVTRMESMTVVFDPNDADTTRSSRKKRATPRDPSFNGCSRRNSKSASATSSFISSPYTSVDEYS
Method: [^3H]SR142801 Competition Binding Assay
hNK3 receptor binding experiment were performed using [^3H]SR142801 (Catalog No. TRK1035, specific activity: 74.0 Ci/mmol, Amersham, GE Healthcare UK limited, Buckinghamshire, UK) and membrane isolated from HEK293 cells transiently expressing recombinant human NK3 receptor. After thawing, the membrane homogenates were centrifuged at 48,000×g for 10 min at 4° C., the pellets were resuspended in the 50 mM Tris-HCl, 4 mM MnCl2, 1 μM phosphoramidon, 0.1% BSA binding buffer at pH 7.4 to a final assay concentration of 5 μg protein/well. […] At the end of the incubation, membranes were filtered onto unitfilter (96-well white microplate with bonded GF/C filter preincubated 1 h in 0.3% PEI+0.3% BSA, Packard BioScience, Meriden, Conn.) with a Filtermate 196 harvester (Packard BioScience) and washed 4 times with ice-cold 50 mM Tris-HCl, pH 7.4 buffer. Nonspecific binding was measured in the presence of 10 μM SB222200 for both radioligands. The radioactivity on the filter was counted (5 min) on a Packard Top-count microplate scintillation counter with quenching correction after addition of 45 μl of microscint 40 (Can berra Packard S. A., Zurich, Switzerland) and shaking for 1 h. Inhibition curves were fitted according to the Hill equation: y=100/(1+(x/IC50)^nH), where nH=slope factor using Excel-fit 4 software (Microsoft). IC50 values were derived from the inhibition curve and the affinity constant (Ki) values were calculated using the Cheng-Prussoff equation Ki═IC50/(1+[L]/KD) where [L] is the concentration of radioligand and KD is its dissociation constant at the receptor, derived from the saturation isotherm. All experiments were performed in duplicate and the mean±standard error (SEM) of the individual Ki values was calculated.

Ki | Structure (SMILES)
12 nM | C[C@H](NC(=O)C1(c2ccc(F)cc2)CCN(C(=O)c2ccc(-c3ccc(F)cc3)cc2)CC1)c1cccc(F)c1 [Example 129, 1-(4′-Fluoro-biphenyl-4-carbonyl)-4-(4-fluoro-phenyl)-piperidine-4-carboxylic acid [(S)-1-(3-fluoro-phenyl)-ethyl]-amide]
77 nM | O=C(N1CCN(c2ccc(F)cc2)CC1)N1CCC(C(=O)NC(c2ccc(F)cc2)C(F)(F)F)(c2ccc(F)cc2)CC1 (stereo not drawn) [Example 176, 4-(4-Fluoro-phenyl)-1-[4-(4-fluoro-phenyl)-piperazine-1-carbonyl]-piperidine-4-carboxylic acid [2,2,2-trifluoro-1-(4-fluoro-phenyl)-ethyl]-amide]
68.7 nM | C[C@H](NC(=O)C1(c2ccccc2)CCN(C(=O)c2ccc(-c3nnco3)cc2)CC1)c1ccccc1 [Example 35, 1-(4-[l,3,4]Oxadiazol-2-yl-benzoyl)-4-phenyl-piperidine-4-carboxylic acid ((S)-1-phenyl-ethyl)-amide]
90.5 nM | Cc1noc(-c2ccc(C(=O)N3CCC(C(=O)N[C@@H](C)c4ccc(C(F)(F)F)cc4)(c4ccccc4)CC3)cc2)n1 [Example 114, 1-[4-(3-Methyl-[1,2,4]oxadiazol-5-yl)-benzoyl]-4-phenyl-piperidine-4-carboxylic acid [(S)-1-(4-trifluoromethyl-phenyl)-ethyl]-amide]
36.3 nM | CC(=O)c1ccc(N2CCN(C(=O)N3CCC(C(=O)N[C@@H](C)c4ccccc4)(c4ccccc4)CC3)CC2)cc1 [Example 207, 1-[4-(4-Acetyl-phenyl)-piperazine-1-carbonyl]-4-phenyl-piperidine-4-carboxylic acid ((S)-1-phenyl-ethyl)-amide]
63.6 nM | CC(C)N(NC(=O)C1(c2ccc(F)cc2)CCN(C(=O)c2ccc(-c3ccc(F)cc3)cc2)CC1)c1ccc(F)cc1 [Example 185, 1-(4′-Fluoro-biphenyl-4-carbonyl)-4-(4-fluoro-phenyl)-piperidine-4-carboxylic acid N′-(4-fluoro-phenyl)-N′-ispropyl-hydrazide]
21.5 nM | O=C(c1ccc(N2CCCCC2=O)cc1)N1CCC(C(=O)N[C@H](c2cccc(F)c2)C2CC2)(c2ccc(F)cc2)CC1 [Example 198, 4-(4-Fluoro-phenyl)-1-[4-(2-oxo-piperidine-1-yl)-benzoyl]-piperidine-4-carboxylic acid [(S)-cyclopropyl-(3-fluoro-phenyl)-methyl]-amide]
20.9 nM | Cc1nc(-c2ccc(C(=O)N3CCC(C(=O)N[C@@H](C)c4ccccc4)(c4ccccc4)CC3)cc2)cs1 [Example 68]
7.6 nM | C[C@H](NC(=O)C1(c2ccc(F)cc2)CCN(C(=O)c2ccc(N3CCS(=O)(=O)CC3)cc2)CC1)C1CCCCC1 [Example 91, 1-[4-(1,1-Dioxo-1λ6 thiomor-pholin-4-yl)-benzoyl]-4-(4-fluoro-phenyl)-piperidine-4-carboxylic acid ((S)-1-cyclohexyl-ethyl)-amide]
65.8 nM | C[C@H](NC(=O)C1(c2ccccc2)CCN(C(=O)c2ccc(-c3cnco3)cc2)CC1)c1ccccc1 [Example 22, 1-(4-Oxazol-5-yl-benzoyl)-4-phenyl-piperidine-4-carboxylic acid ((S)-1-phenyl-ethyl)-amide]
75 nM | Cc1noc(-c2ccc(C(=O)N3CCC(C(=O)NC(C)c4ccc(F)c(C(F)(F)F)c4)(c4ccc(F)cc4)CC3)cc2)n1 (stereo not drawn) [Example 162, 4-(4-Fluoro-phenyl)-1-[4-(3-methyl-[1,2,4]oxadiazol-5-yl)-benzoyl]-piperidine-4-carboxylic acid [1-(4-fluoro-3-trifluoromethyl-phenyl)-ethyl]-amide]
41 nM | Cc1nc(-c2ccc(C(=O)N3CCC(C(=O)NC4(c5ccc(F)cc5)CC4)(c4ccc(F)cc4)CC3)cc2)no1 [Example 163, 4-(4-Fluoro-phenyl)-1-[4-(5-methyl-[1,2,4]oxadiazol-3-yl)-benzoyl]-piperidine-4-carboxylic acid [1-(4-fluoro-phenyl)-cyclopropyl]-amide]
26.7 nM | C[C@H](NC(=O)C1(c2ccccc2)CCN(C(=O)c2ccc(-c3ccc(C(F)(F)F)cn3)cc2)CC1)c1ccccc1 [Example 45, 4-Phenyl-1-[4-(5-trifluorome-thyl-pyridin-2-yl)benzoyl]-piperidine-4-carboxylic acid ((S)-1-phenyl-ethyl)-amide]
11.5 nM | O=C(c1ccc(-c2ccc(F)cc2)cc1)N1CCC(C(=O)N[C@@H](CO)c2ccc(F)cc2)(c2ccc(F)cc2)CC1 [Example 151, 1-(4′-Fluoro-biphenyl-4-carbonyl)-4-(4-fluoro-phenyl)-piperidine-4-carboxylic acid [(R)-1-(4-fluoro-phenyl)-2-hydroxy-ethyl]-amide]
38.2 nM | O=C(c1ccc(-c2ccc(F)cc2)cc1)N1CCC(C(=O)NCC2CCCCC2)(c2ccc(F)cc2)CC1 [Example 142, 1-(4′-Fluoro-biphenyl-4-carbonyl)-4-(4-fluoro-phenyl)-piperidine-4-carboxylic acid cyclohexylmethyl-amide]
18 nM | C[C@H](NC(=O)C1(c2ccc(F)cc2)CCN(C(=O)N2CCN(c3ccc(F)cc3)CC2)CC1)c1ccc(F)cc1 [Example 179, 4-(4-Fluoro-phenyl)-1-[4-(fluoro-phenyl)-piperazine-1-carbonyl]-piperidine-4-carboxylic acid [(S)-1-(4-fluoro-phenyl)-ethyl]-amide]
24.7 nM | C[C@H](NC(=O)C1(c2ccccc2)CCN(C(=O)c2ccc(-c3ncccn3)cc2)CC1)c1ccccc1 [Example 47, 4-Phenyl-1-(4-pyrimidin-2-yl-benzoyl)-piperidine-4-carboxylic acid ((S)-1-phenyl-ethyl)-amide]
54 nM | CC(C)C(NC(=O)C1(c2ccc(F)cc2)CCN(C(=O)c2ccc(N3CCCCC3=O)cc2)CC1)c1ccc(F)cc1 (stereo not drawn) [Example 171, 4-(4-Fluoro-phenyl)-1-[4-(2-oxo-piperidin-1-yl)-benzoyl]-piperidine-4-carboxylic acid [1-(4-fluoro-phenyl)-2-methyl-propyl]-amide]
6 nM | Cc1noc(-c2ccc(C(=O)N3CCC(C(=O)N[C@@H](C)c4ccccc4)(c4ccc(F)cc4)CC3)cc2)n1 [Example 81, 4-(4-Fluoro-phenyl)-1-[4-(3-methyl-[1,2,4]oxa-diazol-5-yl)-benzoyl]-piperidine-4-carboxylic acid ((S)-1-phenyl-ethyl)-amide]
12.5 nM | C[C@H](NC(=O)C1(c2ccccc2)CCN(C(=O)N2CCN(c3ccc(Cl)cc3)CC2)CC1)c1ccccc1 [Example 219, 1-[4-(4-Chloro-phenyl)-piperazine-1-carbonyl]-4-phenyl-piperidine-4-carboxylic acid ((S)-1-phenyl-ethyl)-amide]
48.2 nM | C[C@H](NC(=O)C1(c2ccccc2)CCN(C(=O)C2CCC(c3ccc(Cl)cc3)CC2)CC1)c1ccccc1 (stereo partly drawn) [Example 3, 1-[4-(4- Chlorophenyl)cyclohexanecarbonyl]-4-phenyl-piperidine-4-carboxylic acid ((S)-1-phenyl-ethyl)-amide]
59 nM | CC(C)c1nc(-c2ccc(C(=O)N3CCC(C(=O)N[C@@H](C)c4ccccc4)(c4ccccc4)CC3)cc2)no1 [Example 66, 1-[4-(5-Isopropyl-[1,2,4]oxa-diazol-3-yl)-benzoyl]-4-phenyl-piperidine-4-carboxylic acid ((S)-1-phenyl-ethyl)-amide]
11.7 nM | Cc1noc(C2CCN(C(=O)N3CCC(C(=O)N[C@@H](C)c4ccc(F)cc4)(c4ccccc4)CC3)CC2)n1 [Example 221, 1-[4-(3-Methyl-[1,2,4]oxadiazol-5-yl)-piperidine-1-carbonyl]-4-phenyl-piperidine-4-carboxylic acid [(S)-1-(4-fluoro-phenyl)-ethyl]-amide]
5.3 nM | Cc1noc(-c2ccc(C(=O)N3CCC(C(=O)N[C@@H](C)c4ccc(F)cc4)(c4ccccc4)CC3)cn2)n1 [Example 82, 1-[6-(3-Methyl-[1,2,4]oxa-diazol-5-yl)-pyridine-3-carbonyl]-4-phenyl-piperidine-4-carboxylic acid [(S)-1-(4-fluoro-phenyl)-ethyl]-amide]
